One test addresses T1, NBD1 (Homo sapiens, UniProt P13569).
T1 construct: Purified recombinant NBD1 was produced using previously described methods; made in house
Briefly: Aggregation analysis using differential static light scattering (DSLS), thermal stability of NBD1 (ΔTagg). The class given is binding. The conditions noted are these: ΔTagg versus DMSO control, NBD1 0.2 mg/ml. The method, boiled down: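 Purified recombinant NBD1 at 0.2 mg/ml in Tris buffer pH7.6 with 2 mM ATP, 5 mM MgCl2, 2 mM DTT and 1% glycerol was mixed with DMSO-dissolved compounds under mineral oil. Plates were heated at 1° C. per minute to 70° C., light scattering imaged every 0.5° C.; Tagg from curve inflection, minus DMSO-control mean.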

Another test concerns the target T2, CFTR (Homo sapiens, UniProt P13569, DEL508-508).
T2 construct: Primary human bronchial epithelial cells from a ΔF508 homozygous CF donor; host or cells: primary human bronchial epithelial cells (CF-HBE), ΔF508 homozygous donor
Kind of test: TECC24 AUC fold over DMSO @10 μM, CFTR-mediated transepithelial chloride transport in CF-HBE cells. The test is classed as cell-based. As to conditions: test agent AUC divided by DMSO vehicle AUC, primary CF-HBE cells, ΔF508 homozygous donor, 48 hours incubation. The method, boiled down: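 Primary ΔF508-homozygous CF bronchial epithelial cells on inserts were incubated 48 h at 36.5 °C with compound in IL-13-containing medium. VT and TEER were then recorded in current-clamp mode (pH 7.4 HEPES bath) with benzamil 10 μM, forskolin 10 μM, then CFTR inhibitor-172 20 μM. The IEQ AUC between forskolin and inhibitor was divided by vehicle AUC.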

The record followed here is patent publication US12649750B2, “Macrocyclic compounds, compositions, and methods of using thereof” (Sionna Therapeutics Inc., priority 2022, dated 2026).

T1 sequence (P13569 423-646 limits assumed): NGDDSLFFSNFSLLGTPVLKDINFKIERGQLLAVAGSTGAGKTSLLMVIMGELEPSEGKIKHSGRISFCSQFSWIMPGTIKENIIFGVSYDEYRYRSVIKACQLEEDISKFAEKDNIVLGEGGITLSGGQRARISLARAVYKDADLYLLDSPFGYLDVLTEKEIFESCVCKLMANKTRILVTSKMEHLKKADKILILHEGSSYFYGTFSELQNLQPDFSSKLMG
T2 sequence (P13569 with tags, fused parts or gaps DEL508-508): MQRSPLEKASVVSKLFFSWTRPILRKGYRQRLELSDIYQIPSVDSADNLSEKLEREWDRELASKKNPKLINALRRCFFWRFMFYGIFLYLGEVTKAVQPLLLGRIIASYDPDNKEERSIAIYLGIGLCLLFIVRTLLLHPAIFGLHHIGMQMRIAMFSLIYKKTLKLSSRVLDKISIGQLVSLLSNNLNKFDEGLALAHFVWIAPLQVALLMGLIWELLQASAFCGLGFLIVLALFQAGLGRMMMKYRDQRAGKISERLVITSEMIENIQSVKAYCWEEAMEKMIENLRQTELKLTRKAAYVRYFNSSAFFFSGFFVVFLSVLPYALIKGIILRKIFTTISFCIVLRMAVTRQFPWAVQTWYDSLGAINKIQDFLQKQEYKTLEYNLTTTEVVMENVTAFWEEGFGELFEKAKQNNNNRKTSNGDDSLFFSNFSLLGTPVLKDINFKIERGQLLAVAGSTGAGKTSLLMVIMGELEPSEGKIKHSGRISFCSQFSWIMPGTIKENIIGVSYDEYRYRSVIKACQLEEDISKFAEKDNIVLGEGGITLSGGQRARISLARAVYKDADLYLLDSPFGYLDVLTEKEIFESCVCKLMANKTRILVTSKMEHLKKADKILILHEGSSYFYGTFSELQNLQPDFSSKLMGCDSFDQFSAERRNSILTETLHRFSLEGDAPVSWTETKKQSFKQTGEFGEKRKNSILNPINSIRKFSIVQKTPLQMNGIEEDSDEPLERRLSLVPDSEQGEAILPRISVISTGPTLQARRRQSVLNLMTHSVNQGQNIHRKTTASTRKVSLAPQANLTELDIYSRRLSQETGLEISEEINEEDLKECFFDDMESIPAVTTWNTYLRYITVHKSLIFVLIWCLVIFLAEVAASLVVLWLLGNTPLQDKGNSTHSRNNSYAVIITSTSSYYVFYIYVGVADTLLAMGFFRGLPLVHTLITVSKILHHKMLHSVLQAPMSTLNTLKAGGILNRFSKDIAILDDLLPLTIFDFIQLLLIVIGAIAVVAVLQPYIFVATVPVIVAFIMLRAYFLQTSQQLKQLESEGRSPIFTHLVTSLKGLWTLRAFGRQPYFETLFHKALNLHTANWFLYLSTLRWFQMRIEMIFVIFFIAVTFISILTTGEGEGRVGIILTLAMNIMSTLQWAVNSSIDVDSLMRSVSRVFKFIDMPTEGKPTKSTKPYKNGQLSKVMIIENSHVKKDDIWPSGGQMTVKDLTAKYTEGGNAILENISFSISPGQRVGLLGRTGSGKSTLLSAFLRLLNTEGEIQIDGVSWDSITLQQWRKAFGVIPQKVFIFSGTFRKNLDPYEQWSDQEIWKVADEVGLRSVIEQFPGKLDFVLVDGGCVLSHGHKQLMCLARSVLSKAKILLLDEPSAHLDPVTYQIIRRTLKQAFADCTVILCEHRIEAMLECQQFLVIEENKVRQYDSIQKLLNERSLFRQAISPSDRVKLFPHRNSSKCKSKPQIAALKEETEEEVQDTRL

With `Cn1nc2nc1-c1cc(ccc1F)Oc1c(F)cc3[nH]ccc3c1CCS(=O)(=O)CC(C)(C)CCCC2(C)c1cccc(CC2CC(=O)N(O)C2=O)c1` (single isomer, unassigned) [Compound 195A, 3-[[3-(22,28-difluoro-3,6,10,10-tetramethyl-12,12-dioxo-24-oxa-12λ6-thia-3,4,19,30-tetrazapentacyclo[23.3.1.12,5.015,23.016,20]triaconta-1(29),2(30),4,15,17,20,22,25,27-nonaen-6-yl)phenyl]methyl]-1-hydroxy-pyrrolidine-2,5-dione], the “DSLS 3D (100 μM ΔT)” value on NBD1 is “C (a value greater than 10 °C and less than or equal to 25 °C is marked “C”)”. Besides, the “TECC (AUC, 10 μM)” value on CFTR is “C (a value between 20 and 80 is marked “C”)”.
Turning to `Cn1nc2nc1-c1cc(ccc1F)Oc1c(F)cc3[nH]ccc3c1CCS(=O)(=O)CC(C)(C)CCCC2(C)c1cccc(CC2CC(=O)N(O)C2=O)c1` (single isomer, unassigned) [Compound 195B, 3-[[3-(22,28-difluoro-3,6,10,10-tetramethyl-12,12-dioxo-24-oxa-12λ6-thia-3,4,19,30-tetrazapentacyclo[23.3.1.12,5.015,23.016,20]triaconta-1(29),2(30),4,15,17,20,22,25,27-nonaen-6-yl)phenyl]methyl]-1-hydroxy-pyrrolidine-2,5-dione], the “DSLS 3D (100 μM ΔT)” value at NBD1 is “C (a value greater than 10 °C and less than or equal to 25 °C is marked “C”)”. In addition, the “TECC (AUC, 10 μM)” value on CFTR was “C (a value between 20 and 80 is marked “C”)”.
`Cn1nc2nc1-c1cc(ccc1F)Oc1c(F)cc3[nH]ccc3c1CCS(=O)(=O)CC(C)(C)CCCC2(C)c1cccc(CC2CC(=O)NC2=O)c1` (single isomer, unassigned) [Compound 196A, 3-[[3-(22,28-difluoro-3,6,10,10-tetramethyl-12,12-dioxo-24-oxa-12λ6-thia-3,4,19,30-tetrazapentacyclo[23.3.1.12,5.015,23.016,20]triaconta-1(29),2(30),4,15,17,20,22,25,27-nonaen-6-yl)phenyl]methyl]pyrrolidine-2,5-dione]: at NBD1, the “DSLS 3D (100 μM ΔT)” value was “C (a value greater than 10 °C and less than or equal to 25 °C is marked “C”)”. Also, the “TECC (AUC, 10 μM)” value on CFTR was “A (a TECC value less than 12 is marked “A”)”.
Consider `Cn1nc2nc1-c1cc(ccc1F)Oc1c(F)cc3[nH]ccc3c1CCS(=O)(=O)CC(C)(C)CCCC2(C)c1cccc(CC2CC(=O)NC2=O)c1` (single isomer, unassigned) [Compound 196B, 3-[[3-(22,28-difluoro-3,6,10,10-tetramethyl-12,12-dioxo-24-oxa-12λ6-thia-3,4,19,30-tetrazapentacyclo[23.3.1.12,5.015,23.016,20]triaconta-1(29),2(30),4,15,17,20,22,25,27-nonaen-6-yl)phenyl]methyl]pyrrolidine-2,5-dione], for which the “DSLS 3D (100 μM ΔT)” value at NBD1 was “A (an ΔTagg value less than or equal to 5 °C is marked “A”)”. In addition, the “TECC (AUC, 10 μM)” value on CFTR is on record as “A (a TECC value less than 12 is marked “A”)”.
As to `C[C@@H](Cc1cccc([C@@]2(C)CCCC(C)(C)CS(=O)(=O)CCc3c(c(F)cc4[nH]ccc34)[S+]([O-])c3ccc(F)c(c3)-c3nc2nn3C)c1)C(=O)O` (single isomer, unassigned) [Compound 204], the “DSLS 3D (100 μM ΔT)” value at NBD1 was “C (a value greater than 10 °C and less than or equal to 25 °C is marked “C”)”. Besides, the “TECC (AUC, 10 μM)” value at CFTR is “C (a value between 20 and 80 is marked “C”)”.
As to `C[C@@H](Cc1cccc([C@@]2(C)CCCC(C)(C)CS(=O)(=O)CCc3c(c(F)cc4[nH]ccc34)[S+]([O-])c3ccc(F)c(c3)-c3nc2nn3C)c1)C(=O)O` (single isomer, unassigned) [Compound 205], the “DSLS 3D (100 μM ΔT)” value on NBD1 was “B (a value above 5 °C and less than or equal to 10 °C is marked “B”)”. For the same compound, the “TECC (AUC, 10 μM)” value at CFTR is given as “A (a TECC value less than 12 is marked “A”)”.
For `C[C@H](Cc1cccc([C@@]2(C)CCCC(C)(C)CS(=O)(=O)CCc3c(c(F)cc4[nH]ccc34)[S+]([O-])c3ccc(F)c(c3)-c3nc2nn3C)c1)C(=O)O` (single isomer, unassigned) [Compound 206A], the “DSLS 3D (100 μM ΔT)” value at NBD1 is “C (a value greater than 10 °C and less than or equal to 25 °C is marked “C”)”. In addition, the “TECC (AUC, 10 μM)” value at CFTR was “C (a value between 20 and 80 is marked “C”)”.
Take `C[C@H](Cc1cccc([C@@]2(C)CCCC(C)(C)CS(=O)(=O)CCc3c(c(F)cc4[nH]ccc34)[S+]([O-])c3ccc(F)c(c3)-c3nc2nn3C)c1)C(=O)O` (single isomer, unassigned) [Compound 206B]: the “DSLS 3D (100 μM ΔT)” value on NBD1 was “B (a value above 5 °C and less than or equal to 10 °C is marked “B”)”. Moreover, the “TECC (AUC, 10 μM)” value at CFTR is recorded as “A (a TECC value less than 12 is marked “A”)”.
On to `Cn1nc2nc1-c1cc(ccc1F)[S+]([O-])c1c(F)cc3[nH]ccc3c1CCS(=O)(=O)CC(C)(C)CCC[C@]2(C)c1cccc(CC(=O)O)c1` (single isomer, unassigned) [Compound 209A], for which, on NBD1, the “DSLS 3D (100 μM ΔT)” value was “B (a value above 5 °C and less than or equal to 10 °C is marked “B”)”. In addition, the “TECC (AUC, 10 μM)” value on CFTR was “A (a TECC value less than 12 is marked “A”)”.
Take `Cn1nc2nc1-c1cc(ccc1F)[S+]([O-])c1c(F)cc3[nH]ccc3c1CCS(=O)(=O)CC(C)(C)CCC[C@]2(C)c1cccc(CC(=O)O)c1` (single isomer, unassigned) [Compound 209B]: at NBD1, the “DSLS 3D (100 μM ΔT)” value was “C (a value greater than 10 °C and less than or equal to 25 °C is marked “C”)”. Further, the “TECC (AUC, 10 μM)” value at CFTR is “C (a value between 20 and 80 is marked “C”)”.
With `C[C@@H](Cc1cccc([C@@]2(C)CCCC(C)(C)CS(=O)(=O)CCc3c(c(F)cc4[nH]ccc34)[S+]([O-])c3cccc(c3)-c3nc2nn3C)c1)C(=O)O` (single isomer, unassigned) [Compound 211A], on NBD1, the “DSLS 3D (100 μM ΔT)” value is “C (a value greater than 10 °C and less than or equal to 25 °C is marked “C”)”. For the same compound, the “TECC (AUC, 10 μM)” value on CFTR was “B (a value between 12-20 is marked “B”)”.
On to `C[C@@H](Cc1cccc([C@@]2(C)CCCC(C)(C)CS(=O)(=O)CCc3c(c(F)cc4[nH]ccc34)[S+]([O-])c3cccc(c3)-c3nc2nn3C)c1)C(=O)O` (single isomer, unassigned) [Compound 211B], for which the “DSLS 3D (100 μM ΔT)” value at NBD1 is “C (a value greater than 10 °C and less than or equal to 25 °C is marked “C”)”. Moreover, the “TECC (AUC, 10 μM)” value on CFTR is on record as “A (a TECC value less than 12 is marked “A”)”.
For the compound `Cn1nc2nc1-c1cc(ccc1F)[S+]([O-])c1c(F)cc3[nH]ccc3c1CCS(=O)(=O)CC(C)(C)CCC[C@]2(C)c1cccc(CCC(=O)O)c1` (single isomer, unassigned) [Compound 215A], at NBD1, the “DSLS 3D (100 μM ΔT)” value was “C (a value greater than 10 °C and less than or equal to 25 °C is marked “C”)”. In addition, on CFTR, the “TECC (AUC, 10 μM)” value is given as “A (a TECC value less than 12 is marked “A”)”.
Consider `Cn1nc2nc1-c1cc(ccc1F)[S+]([O-])c1c(F)cc3[nH]ccc3c1CCS(=O)(=O)CC(C)(C)CCC[C@]2(C)c1cccc(CCC(=O)O)c1` (single isomer, unassigned) [Compound 215B], for which the “DSLS 3D (100 μM ΔT)” value at NBD1 was “C (a value greater than 10 °C and less than or equal to 25 °C is marked “C”)”. At CFTR, the “TECC (AUC, 10 μM)” value was “C (a value between 20 and 80 is marked “C”)”.
With `Cn1nc2nc1-c1cc(ccc1F)[S+]([O-])c1c(F)cc3[nH]ccc3c1CCS(=O)(=O)CC(C)(C)CCC[C@]2(C)c1cccc(CCO)c1` (single isomer, unassigned) [Compound 216A], the “DSLS 3D (100 μM ΔT)” value on NBD1 is “B (a value above 5 °C and less than or equal to 10 °C is marked “B”)”. Further, the “TECC (AUC, 10 μM)” value at CFTR was “B (a value between 12-20 is marked “B”)”.
For the compound `Cn1nc2nc1-c1cc(ccc1F)[S+]([O-])c1c(F)cc3[nH]ccc3c1CCS(=O)(=O)CC(C)(C)CCC[C@]2(C)c1cccc(CCO)c1` (single isomer, unassigned) [Compound 216B], the “DSLS 3D (100 μM ΔT)” value on NBD1 was “C (a value greater than 10 °C and less than or equal to 25 °C is marked “C”)”. For the same compound, the “TECC (AUC, 10 μM)” value at CFTR is “C (a value between 20 and 80 is marked “C”)”.
Regarding `COCC(Cc1cccc([C@@]2(C)CCCC(C)(C)CS(=O)(=O)CCc3c(c(F)cc4[nH]ccc34)[S+]([O-])c3ccc(F)c(c3)-c3nc2nn3C)c1)C(=O)O` (single isomer, unassigned) [Compound 218A], the “DSLS 3D (100 μM ΔT)” value at NBD1 was “B (a value above 5 °C and less than or equal to 10 °C is marked “B”)”. Also, at CFTR, the “TECC (AUC, 10 μM)” value is given as “A (a TECC value less than 12 is marked “A”)”.
For `COCC(Cc1cccc([C@@]2(C)CCCC(C)(C)CS(=O)(=O)CCc3c(c(F)cc4[nH]ccc34)[S+]([O-])c3ccc(F)c(c3)-c3nc2nn3C)c1)C(=O)O` (single isomer, unassigned) [Compound 218B], at NBD1, the “DSLS 3D (100 μM ΔT)” value is “C (a value greater than 10 °C and less than or equal to 25 °C is marked “C”)”. Moreover, the “TECC (AUC, 10 μM)” value at CFTR is “C (a value between 20 and 80 is marked “C”)”.
For the compound `Cn1nc2nc1-c1cc(ccc1F)[S+]([O-])c1c(F)cc3[nH]ccc3c1CCS(=O)(=O)CC(C)(C)CCC[C@]2(C)c1cccc(CCS(C)(=O)=O)c1` (single isomer, unassigned) [Compound 220A], the “DSLS 3D (100 μM ΔT)” value on NBD1 was “A (an ΔTagg value less than or equal to 5 °C is marked “A”)”. At CFTR, the “TECC (AUC, 10 μM)” value is given as “A (a TECC value less than 12 is marked “A”)”.
For the compound `Cn1nc2nc1-c1cc(ccc1F)[S+]([O-])c1c(F)cc3[nH]ccc3c1CCS(=O)(=O)CC(C)(C)CCC[C@]2(C)c1cccc(CCS(C)(=O)=O)c1` (single isomer, unassigned) [Compound 220B], the “DSLS 3D (100 μM ΔT)” value at NBD1 was “C (a value greater than 10 °C and less than or equal to 25 °C is marked “C”)”. Further, the “TECC (AUC, 10 μM)” value at CFTR is “C (a value between 20 and 80 is marked “C”)”.
